Laboratory results taken from publication PMC10967270, “Intrapulmonary and Systemic Pharmacokinetics of Colistin Following Nebulization of Low-Dose Colistimethate Sodium in Patients with Ventilator-Associated Pneumonia Caused by Carbapenem-Resistant Acinetobacter baumannii” (Antibiotics, 2024).
Where two headings read alike, the source gives them in different places. Positions of bridges follow the written chain, without caps; N, C: chain ends. Non-standard residues stand in square brackets, D forms with d. Residues, ends and D or L forms follow the SMILES beside them. *: point of attachment. X1 = CC[C@H](C)CCCCC(=O)*; Dab = NCC[C@H](N)C(=O)O

Tests used:
A. baumannii [1] = conditions: among 2879 isolates, EUCAST; cited from earlier work
A. baumannii [2] = conditions: murine thigh infection model; cited from earlier work
[3] = Individual steady-state fAUC of colistin in ELF and plasma by clinical and microbiological outcome; format: in vivo, human; conditions: for fAUC, median (IQR): steady state over 24 h
Experimental: We investigated whether the fAUC values of individual patients were associated with clinical or microbiological outcomes (Table 3). Using individual estimates of CL derived from the final PK model, we calculated the steady-state fAUC for each patient when a total of 3.75 MIU (=300 mg CMS = 112.5 mg CBA) was administered at 6 h intervals four times a day, using the formula AUC = DOSE/CL. The unbound fraction of colistin was assumed to be 10% [25] in the ELF based on the study by Gkoufa et al. and 34% in the plasma based on the study by Mohamed et al.. Gkoufa et al. presented concentration–time profiles of colistin predicted through simulations, assuming unbound fractions in the ELF of 0.01, 0.015, 0.05, and 0.099 [25]. From these, we approximated the unbound fraction at 0.1 by rounding 0.099. Meanwhile, Mohamed et al. determined the unbound fraction in plasma using equilibrium dialysis and reported a measured median (range) colistin unbound fraction of 34% (26–41%).
The PK/PD index for colistin is the area under the free colistin concentration-–time curve at steady state over 24 h divided by the pathogen minimum inhibitory concentration (fAUC/MIC). Since we were unable to obtain MIC values for A. baumannii, we evaluated the relationship between the PK and PD of colistin by comparing the fAUC of each patient in accordance with their clinical outcomes and microbiological outcomes. AUC was calculated by dividing the daily dose by patient, which was the individual post hoc Bayesian estimate of the developed PK model. […] The Wilcoxon rank-sum test was used to assess the relationships between fAUC and clinical outcomes, and the Kruskal–Wallis test was used to investigate the association between fAUC and microbiological outcomes. Additionally, leveraging typical PK parameter values from final models of ELF and plasma samples, we simulated concentration-time profiles of colistin for nebulization doses of 25 mg, 50 mg, 75 mg, 100 mg, and 125 mg in patients. Subsequently, we generated concentration–time plots and computed fAUC values.

[4] = cited from earlier work; for Maximum ELF concentration, median (IQR): 2 MIU CMS
Experimental: The observed median (IQR) peak colistin concentration was 21,950 (10,440–28,389) μg/L in the ELF, while that in plasma was 43.51 (14.23–85.78) μg/L. Boisson et al. reported that, regardless of concentration, a significant adsorption of CMS to the mini-BAL device was not observed in studies utilizing the mini-BAL device. They also noted that non-specific adsorption was not significant at a concentration of 6 mg/L. Consequently, it appears from our study that there was no significant adsorption of CMS [23]. […] These studies measured concentrations of both CMS and colistin in the ELF, assuming equal V/fm for CMS and colistin. In our study, the V/fm of colistin in plasma was estimated at 67.4 L, which is much greater than the 13.7 L reported in Boisson et al.. Gkoufa et al. fixed this distribution volume at 13.7 L based on Boisson et al.. The CL/fm of colistin ... || The PK/PD index for colistin is the area under the free colistin concentration-–time curve at steady state over 24 h divided by the pathogen minimum inhibitory concentration (fAUC/MIC). Since we were unable to obtain MIC values for A. baumannii, we evaluated the relationship between the PK and PD of colistin by comparing the fAUC of each patient in accordance with their clinical outcomes and microbiological outcomes. AUC was calculated by dividing the daily dose by patient, which was the individual post hoc Bayesian estimate of the developed PK model. The bioavailability of colistin ...

CC[C@H](C)CCCCC(=O)N[C@@H](CCN)C(=O)N[C@H](C(=O)N[C@@H](CCN)C(=O)N[C@H]1CCNC(=O)[C@H]([C@@H](C)O)NC(=O)[C@H](CCN)NC(=O)[C@H](CCN)NC(=O)[C@H](CC(C)C)NC(=O)[C@@H](CC(C)C)NC(=O)[C@H](CCN)NC1=O)[C@@H](C)O [colistin] (X1-[Dab]T[Dab][Dab][Dab][dL]L[Dab][Dab]T; lactam 4-C)
Isolates with a colistin MIC of 1 mg/L, number (%) (A. baumannii [1]): 1451 (50.4%) | Isolates with a colistin MIC of 2 mg/L, number (%) (A. baumannii [1]): 539 (18.7%) | Isolates with a colistin MIC of 4 mg/L, number (%) (A. baumannii [1]): 54 (1.88%) | fAUC/MIC target values for a 2 log10 kill (A. baumannii [2]): 17.5–43.0 mg/L·h | fAUC, median (IQR) ([3]; ELF, clinical outcome cured/improved, 16 patients, 3.75 MIU CMS/day at 6 h intervals, AUC = dose/CL, bioavailability 9%, unbound fraction 10%): 36.7 (18.2–62.9) mg/L·h | fAUC, median (IQR) ([3]; ELF, clinical outcome failed, 4 patients, 3.75 MIU CMS/day, unbound fraction 10%): 31.7 (15.4–47.8) mg/L·h | fAUC, median (IQR) ([3]; ELF, microbiological outcome eradicated, 8 patients, 3.75 MIU CMS/day): 61.2 (12.5–111) mg/L·h | fAUC, median (IQR) ([3]; ELF, microbiological outcome indeterminate, 2 patients, 3.75 MIU CMS/day): 33.9 (30.0–37.9) mg/L·h | fAUC, median (IQR) ([3]; ELF, microbiological outcome persistent, 10 patients, 3.75 MIU CMS/day): 28.5 (17.7–50.5) mg/L·h | fAUC in ELF relative to plasma ([3]; cured/improved group, mean values): approximately 27.2 times | fAUC in ELF relative to plasma ([3]; cured/improved group, median values): approximately 26.2 times | fAUC in ELF relative to plasma ([3]; eradicated group, mean values): 39.8 times | fAUC in ELF relative to plasma ([3]; eradicated group, median values): 26.0 times | fAUC in ELF relative to plasma ([3]; failed group, mean values): about 14.0 times | fAUC in ELF relative to plasma ([3]; failed group, median values): 15.9 times | fAUC in ELF relative to plasma ([3]; indeterminate group, mean values): 6 times | fAUC in ELF relative to plasma ([3]; indeterminate group, median values): 6 times | ELF fAUC, cured/improved relative to treatment failure ([3]; mean values): more than 2.25 times | ELF fAUC, eradicated relative to indeterminate group ([3]; mean values): 3.24 times | ELF fAUC, eradicated relative to persistent group ([3]; mean values): 3.48 times | ELF fAUC, cured/improved relative to treatment failure ([3]; median values): 1.16 times | ELF fAUC, eradicated relative to indeterminate group ([3]; median values): 1.80 times | ELF fAUC, eradicated relative to persistent group ([3]; median values): 2.15 times | fAUC in ELF relative to plasma ([3]; persistent group, mean values): 18.8 times | fAUC in ELF relative to plasma ([3]; persistent group, median values): 18.2 times | fAUC, median (IQR) ([3]; plasma, clinical outcome cured/improved, 16 patients, 3.75 MIU CMS/day, unbound fraction 34%): 1.40 (0.752–3.74) mg/L·h | fAUC, median (IQR) ([3]; plasma, clinical outcome failed, 4 patients, 3.75 MIU CMS/day, unbound fraction 34%): 2.00 (1.87–2.38) mg/L·h | fAUC, median (IQR) ([3]; plasma, microbiological outcome eradicated, 8 patients, 3.75 MIU CMS/day): 2.36 (0.645–4.11) mg/L·h | fAUC, median (IQR) ([3]; plasma, microbiological outcome indeterminate, 2 patients, 3.75 MIU CMS/day): 5.96 (5.00–6.91) mg/L·h | fAUC, median (IQR) ([3]; plasma, microbiological outcome persistent, 10 patients, 3.75 MIU CMS/day): 1.56 (1.00–2.05) mg/L·h | Maximum ELF concentration, median (IQR) ([4]; jet nebulizer): 7.4 (6.2–10.3) mg/L | Maximum ELF concentration, median (IQR) ([4]; vibrating mesh nebulizer): 10.4 (4.7–22.6) mg/L | CL/fm of colistin in plasma ([4]; Boisson et al.): 53.1 mL/min | V/fm of colistin in plasma ([4]; Boisson et al.): 13.7 L | V/fm of colistin in the ELF ([4]; Boisson et al.): 1.2 mL | CL/fm of colistin in plasma ([4]; Gkoufa et al.): 128 mL/min | V/fm of colistin in the ELF ([4]; Gkoufa et al.): 14.5 mL | Bioavailability of colistin ([4]; assumed from the literature to calculate the PK/PD index): 9% | Intercompartmental CL/fm ([4]; between ELF and plasma, Gkoufa et al.): 0.372 mL/min
